Test results reported in ChEMBL document CHEMBL1201862, “PubChem BioAssay data set” (2004).
Calls of active or inactive are those of the source.

Tests used:
[1] = molecular target: T1, Alkaline phosphatase, tissue-nonspecific isozyme (Homo sapiens, UniProt P05186); assay: activation of tissue-nonspecific alkaline phosphatase – biochemical, TNAP isozyme, human IAP uHTS hits, selectivity assay for human IAP activator project, dose response (AID 488886); type: functional;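 note: potency of compounds raising TNAP activity as a selectivity check on IAP activators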
T1 sequence (P05186 whole entry): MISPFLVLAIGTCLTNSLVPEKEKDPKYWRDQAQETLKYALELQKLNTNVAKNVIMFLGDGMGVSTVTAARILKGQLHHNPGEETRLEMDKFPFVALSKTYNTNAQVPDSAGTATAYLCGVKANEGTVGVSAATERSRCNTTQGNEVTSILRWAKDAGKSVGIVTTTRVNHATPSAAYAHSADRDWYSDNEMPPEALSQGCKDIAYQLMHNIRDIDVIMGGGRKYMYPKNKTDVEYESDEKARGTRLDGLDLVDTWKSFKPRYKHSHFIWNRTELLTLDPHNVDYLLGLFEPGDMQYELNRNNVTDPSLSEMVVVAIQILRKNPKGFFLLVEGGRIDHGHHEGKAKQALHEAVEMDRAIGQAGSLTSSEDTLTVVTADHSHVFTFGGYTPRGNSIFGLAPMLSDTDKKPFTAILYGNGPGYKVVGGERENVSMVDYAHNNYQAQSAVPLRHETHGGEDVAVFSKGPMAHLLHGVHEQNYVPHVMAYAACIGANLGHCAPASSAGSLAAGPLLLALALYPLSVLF

[2] = cells; type: functional
[3] = molecular target: Intestinal-type alkaline phosphatase (Mus musculus, UniProt P24822); assay: PubChem AID 488874; type: functional
Sequence of Intestinal-type alkaline phosphatase (Mus musculus, UniProt P24822) (P24822 whole entry): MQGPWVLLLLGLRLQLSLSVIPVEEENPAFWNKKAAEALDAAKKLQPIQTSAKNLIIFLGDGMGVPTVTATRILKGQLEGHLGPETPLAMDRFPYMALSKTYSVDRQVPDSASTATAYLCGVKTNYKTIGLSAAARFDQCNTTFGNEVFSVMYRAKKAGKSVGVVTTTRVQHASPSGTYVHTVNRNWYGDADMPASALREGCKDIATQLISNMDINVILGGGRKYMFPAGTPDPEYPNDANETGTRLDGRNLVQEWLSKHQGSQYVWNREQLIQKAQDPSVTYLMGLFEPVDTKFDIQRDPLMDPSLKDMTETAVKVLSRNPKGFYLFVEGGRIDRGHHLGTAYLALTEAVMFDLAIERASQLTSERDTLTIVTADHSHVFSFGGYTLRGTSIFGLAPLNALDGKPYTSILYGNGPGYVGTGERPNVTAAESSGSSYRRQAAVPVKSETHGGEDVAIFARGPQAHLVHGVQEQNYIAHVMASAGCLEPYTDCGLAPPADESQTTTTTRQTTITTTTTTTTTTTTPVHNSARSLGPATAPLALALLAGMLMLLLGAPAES

[4] = molecular target: T2, Intestinal-type alkaline phosphatase (Homo sapiens, UniProt P09923); assay: activation of human intestinal alkaline phosphatase – biochemical, luminescent, uHTS hits, set 2, dose response (AID 488817); type: functional;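 note: potency of activators that raise enzyme activity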
T2 sequence (P09923 whole entry): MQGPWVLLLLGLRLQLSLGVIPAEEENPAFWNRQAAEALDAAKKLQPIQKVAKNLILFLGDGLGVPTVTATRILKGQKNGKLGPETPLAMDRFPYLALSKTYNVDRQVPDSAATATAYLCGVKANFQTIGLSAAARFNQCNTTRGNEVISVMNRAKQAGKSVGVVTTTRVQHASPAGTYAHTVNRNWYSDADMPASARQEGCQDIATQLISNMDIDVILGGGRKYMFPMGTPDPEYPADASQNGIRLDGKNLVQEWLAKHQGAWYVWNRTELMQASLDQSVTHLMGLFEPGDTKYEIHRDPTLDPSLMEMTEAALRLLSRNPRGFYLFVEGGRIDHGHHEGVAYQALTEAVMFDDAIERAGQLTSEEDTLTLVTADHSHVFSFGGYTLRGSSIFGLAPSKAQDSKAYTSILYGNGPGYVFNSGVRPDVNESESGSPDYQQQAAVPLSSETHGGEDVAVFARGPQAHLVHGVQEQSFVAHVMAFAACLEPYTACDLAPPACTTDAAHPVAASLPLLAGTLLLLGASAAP

[5] = molecular target: T1, Alkaline phosphatase, tissue-nonspecific isozyme
[6] = molecular target: T2, Intestinal-type alkaline phosphatase; assay: human intestinal alkaline phosphatase activators, dose response, biochemical, luminescence, uHTS hits (AID 463120); type: functional
[7] = system: INS1; assay: INS-1E survival protection against cytokine death – cell-based, luminescence, retest, dose response (AID 449756); type: functional; details: Rattus norvegicus;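 note: cell death triggered by IL-1 beta plus TNF-alpha plus IFN-gamma mixture; protective hits raise ATP signal compared with cytokine alone wells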
[8] = molecular target: Heat shock protein HSP 90-alpha (Homo sapiens, UniProt P07900); type: functional, organism-based
[9] = NIH3T3 cell viability loss – ATP luminescence, mouse fibroblasts, counter-screen, dose response (AID 2010); type: functional, cell-based;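 note: cells exposed to compound for about 90 hours before reading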
[10] = luciferase reporter signal suppression in cells – H4 neuroglioma cells, luminescence, dose response (AID 1990); type: functional, cell-based
[11] = molecular target: T3, Heat shock factor protein 1 (Mus musculus, UniProt P38532); assay: decrease of HSF1-responsive luciferase luminescence – cell-based, NIH3T3, dose retest, confirmation (AID 2382); type: functional;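 note: NIH3T3 fibroblasts with HSF1-driven luciferase reporter stressed by proteasome inhibitor MG132; luminescence from HSF1-driven luciferase expression after 8 hours of MG132 stress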
T3 sequence (P38532 whole entry): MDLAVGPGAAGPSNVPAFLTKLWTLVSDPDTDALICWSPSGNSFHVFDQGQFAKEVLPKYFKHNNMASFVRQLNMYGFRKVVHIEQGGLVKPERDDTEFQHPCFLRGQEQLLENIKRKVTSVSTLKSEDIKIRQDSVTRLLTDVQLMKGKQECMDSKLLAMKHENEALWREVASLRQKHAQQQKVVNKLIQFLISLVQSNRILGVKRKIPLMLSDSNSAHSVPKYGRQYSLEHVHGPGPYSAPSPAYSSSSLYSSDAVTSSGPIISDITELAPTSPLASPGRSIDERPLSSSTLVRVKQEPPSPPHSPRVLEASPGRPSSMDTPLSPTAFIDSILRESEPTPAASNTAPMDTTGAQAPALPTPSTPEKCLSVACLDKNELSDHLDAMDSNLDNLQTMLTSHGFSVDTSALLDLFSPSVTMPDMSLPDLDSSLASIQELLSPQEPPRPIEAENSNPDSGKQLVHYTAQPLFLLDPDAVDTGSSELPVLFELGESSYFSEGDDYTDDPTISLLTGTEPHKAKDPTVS

[12] = Luminescence Cell-Based Dose Response HTS to Identify Inhibitors of 5'UTR Stem-Loop Driven Prion Protein mRNA Translation in H4 Neuroglioblastoma Cells. [Related pubchem assays: 1827 (Project Summary), 1813 (Primary HTS)]; type: functional
[13] = system: HEK293; assay: EBV LMP1 TES2 canonical NF-kB signalling blockers – cell-based, HEK293, luciferase, cherry-pick, dose response (AID 588343); type: functional; details: Homo sapiens
[14] = molecular target: T4, Kappa-type opioid receptor (Homo sapiens, UniProt P41145); type: functional
T4 sequence (P41145 whole entry): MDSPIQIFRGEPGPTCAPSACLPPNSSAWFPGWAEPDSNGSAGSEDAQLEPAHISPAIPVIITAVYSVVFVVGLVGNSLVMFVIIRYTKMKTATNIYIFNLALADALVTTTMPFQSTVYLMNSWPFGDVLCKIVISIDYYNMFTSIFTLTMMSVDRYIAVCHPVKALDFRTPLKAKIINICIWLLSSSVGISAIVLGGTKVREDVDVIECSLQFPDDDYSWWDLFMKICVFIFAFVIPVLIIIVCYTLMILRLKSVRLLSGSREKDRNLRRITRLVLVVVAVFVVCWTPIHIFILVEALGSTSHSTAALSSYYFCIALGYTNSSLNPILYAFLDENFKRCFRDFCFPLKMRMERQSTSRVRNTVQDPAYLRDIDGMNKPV

[15] = molecular target: Beta-galactosidase (Escherichia coli, UniProt Q8VNN2); type: functional
[16] = Trypanosoma cruzi growth suppression in host cells – NIH3T3 host cells, beta-gal luminescence, confirmation (AID 2044); type: functional, cell-based;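 note: intracellular parasites grown in NIH/3T3 mouse fibroblasts as host cells; luminescent beta-galactosidase reporter signal from transgenic T. cruzi replicating inside host cells; inhibitors lower the luminescence signal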
[17] = molecular target: T4, Kappa-type opioid receptor; type: functional; remark: listed apart in the source
[18] = molecular target: Exodeoxyribonuclease V (Escherichia coli (strain K12), UniProt P04993+P07648+P08394); assay: RecBCD inhibition via phage-restricted bacterial growth – absorbance, V66 E. coli, mutant T4 phage, counter-screen for AddAB inhibitor project, dose response (AID 492957); type: functional, cell-based, Escherichia coli str. K-12 substr. MG1655
Sequence of Exodeoxyribonuclease V (P04993 whole entry): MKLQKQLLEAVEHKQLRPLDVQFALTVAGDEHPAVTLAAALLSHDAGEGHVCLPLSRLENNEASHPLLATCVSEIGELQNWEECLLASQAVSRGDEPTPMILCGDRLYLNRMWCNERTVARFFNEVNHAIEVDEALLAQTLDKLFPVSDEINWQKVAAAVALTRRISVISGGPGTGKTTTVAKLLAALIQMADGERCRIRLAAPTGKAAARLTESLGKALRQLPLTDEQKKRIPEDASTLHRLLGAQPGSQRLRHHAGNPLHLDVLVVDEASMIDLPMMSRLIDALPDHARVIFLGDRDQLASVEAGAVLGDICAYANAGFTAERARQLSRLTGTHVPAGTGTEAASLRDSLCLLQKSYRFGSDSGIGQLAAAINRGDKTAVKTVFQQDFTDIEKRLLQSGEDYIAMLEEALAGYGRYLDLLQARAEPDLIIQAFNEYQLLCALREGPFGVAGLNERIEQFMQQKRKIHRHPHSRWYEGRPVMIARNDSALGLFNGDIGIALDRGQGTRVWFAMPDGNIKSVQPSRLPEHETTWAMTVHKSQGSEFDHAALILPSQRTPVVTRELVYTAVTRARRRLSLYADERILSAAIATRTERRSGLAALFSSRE
Sequence of Exodeoxyribonuclease V (P07648 whole entry): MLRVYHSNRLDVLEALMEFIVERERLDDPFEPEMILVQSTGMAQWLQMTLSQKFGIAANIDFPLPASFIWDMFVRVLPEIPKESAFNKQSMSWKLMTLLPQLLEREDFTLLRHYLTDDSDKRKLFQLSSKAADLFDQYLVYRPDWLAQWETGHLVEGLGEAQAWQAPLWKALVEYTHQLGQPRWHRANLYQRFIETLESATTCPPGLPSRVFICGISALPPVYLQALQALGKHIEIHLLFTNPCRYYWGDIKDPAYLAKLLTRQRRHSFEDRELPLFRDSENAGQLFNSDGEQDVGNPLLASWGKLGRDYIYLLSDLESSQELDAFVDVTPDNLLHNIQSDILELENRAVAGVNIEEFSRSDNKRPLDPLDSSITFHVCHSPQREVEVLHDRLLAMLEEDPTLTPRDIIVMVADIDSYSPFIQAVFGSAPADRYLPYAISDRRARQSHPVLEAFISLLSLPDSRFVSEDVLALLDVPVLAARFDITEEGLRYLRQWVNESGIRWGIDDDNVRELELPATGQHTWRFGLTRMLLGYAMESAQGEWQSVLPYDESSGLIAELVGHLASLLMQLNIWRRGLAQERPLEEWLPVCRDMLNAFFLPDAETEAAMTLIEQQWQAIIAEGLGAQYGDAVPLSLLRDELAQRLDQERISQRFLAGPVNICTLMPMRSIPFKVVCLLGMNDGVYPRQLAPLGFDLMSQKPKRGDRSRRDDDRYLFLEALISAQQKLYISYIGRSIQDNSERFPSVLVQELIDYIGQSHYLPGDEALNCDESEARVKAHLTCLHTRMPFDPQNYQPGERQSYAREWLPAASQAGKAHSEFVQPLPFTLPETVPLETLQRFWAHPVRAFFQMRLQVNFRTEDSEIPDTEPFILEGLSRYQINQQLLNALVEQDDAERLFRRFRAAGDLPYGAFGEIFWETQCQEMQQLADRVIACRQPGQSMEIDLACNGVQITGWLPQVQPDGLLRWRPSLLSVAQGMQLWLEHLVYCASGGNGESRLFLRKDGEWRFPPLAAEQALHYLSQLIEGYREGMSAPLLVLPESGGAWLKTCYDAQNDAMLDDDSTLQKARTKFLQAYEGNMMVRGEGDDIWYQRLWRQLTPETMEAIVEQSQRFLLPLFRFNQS
Sequence of Exodeoxyribonuclease V (P08394 whole entry): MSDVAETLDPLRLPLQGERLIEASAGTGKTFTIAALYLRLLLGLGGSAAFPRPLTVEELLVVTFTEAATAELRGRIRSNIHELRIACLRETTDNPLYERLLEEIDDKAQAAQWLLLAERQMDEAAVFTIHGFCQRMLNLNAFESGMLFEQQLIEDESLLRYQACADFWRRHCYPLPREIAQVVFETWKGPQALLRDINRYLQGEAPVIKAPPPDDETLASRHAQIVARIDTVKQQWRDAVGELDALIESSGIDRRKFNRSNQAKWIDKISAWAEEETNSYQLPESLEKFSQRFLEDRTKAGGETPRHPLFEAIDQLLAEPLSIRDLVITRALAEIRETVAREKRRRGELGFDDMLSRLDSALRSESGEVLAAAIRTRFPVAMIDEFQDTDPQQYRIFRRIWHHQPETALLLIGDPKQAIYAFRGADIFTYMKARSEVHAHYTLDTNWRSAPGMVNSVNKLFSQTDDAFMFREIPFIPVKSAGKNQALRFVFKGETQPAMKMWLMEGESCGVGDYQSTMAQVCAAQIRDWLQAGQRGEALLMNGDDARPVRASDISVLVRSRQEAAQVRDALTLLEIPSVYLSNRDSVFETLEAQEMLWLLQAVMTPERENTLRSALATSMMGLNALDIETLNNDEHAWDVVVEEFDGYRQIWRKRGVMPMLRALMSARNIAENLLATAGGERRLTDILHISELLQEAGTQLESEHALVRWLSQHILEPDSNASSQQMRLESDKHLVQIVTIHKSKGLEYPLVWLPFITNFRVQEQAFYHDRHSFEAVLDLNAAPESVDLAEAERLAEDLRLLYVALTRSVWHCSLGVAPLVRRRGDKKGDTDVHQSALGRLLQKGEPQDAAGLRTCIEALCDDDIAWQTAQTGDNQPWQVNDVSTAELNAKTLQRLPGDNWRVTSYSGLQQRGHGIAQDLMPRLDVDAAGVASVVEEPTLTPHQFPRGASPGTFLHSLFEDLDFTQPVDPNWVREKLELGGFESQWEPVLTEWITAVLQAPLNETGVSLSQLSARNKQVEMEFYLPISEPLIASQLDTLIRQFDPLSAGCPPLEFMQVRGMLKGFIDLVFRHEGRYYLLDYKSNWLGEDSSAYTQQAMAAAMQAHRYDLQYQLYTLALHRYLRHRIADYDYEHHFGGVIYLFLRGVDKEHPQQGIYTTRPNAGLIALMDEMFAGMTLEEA

[19] = alpha-synuclein stem-loop luciferase translation blockers – H4 neuroglioma cells, luminescence, confirmation (AID 1988); type: functional, cell-based
[20] = molecular target: Nonstructural protein 1 (Influenza A virus, UniProt Q194T2); type: functional, Influenza A virus (A/California/07/2009(H1N1))
Sequence of Nonstructural protein 1 (Q194T2 whole entry): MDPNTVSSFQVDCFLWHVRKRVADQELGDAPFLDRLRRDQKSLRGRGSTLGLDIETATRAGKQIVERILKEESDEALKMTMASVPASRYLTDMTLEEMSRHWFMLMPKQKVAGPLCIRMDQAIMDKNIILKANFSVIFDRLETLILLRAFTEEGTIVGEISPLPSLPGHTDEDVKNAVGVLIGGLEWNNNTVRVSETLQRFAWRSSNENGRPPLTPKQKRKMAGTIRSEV

[21] = HEK-293T viability loss after treatment – luminescence, T-cell screen hits, cytotoxicity control for TCR NF-kB inhibitor project, dose response (AID 489026); type: functional, cell-based;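 note: cells exposed to compound about 14 hours before the viability readout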
[22] = cells; type: functional, cell-based
[23] = Counterscreen for AddAB inhibitors: absorbance-based bacterial cell-based high throughput dose response assay for inhibitors of bacterial viability. [Related pubchem assays (depositor defined):AID435030, AID449728, AID449731, AID488942, AID488955, AID488956]; type: functional
[24] = cells; type: functional, cell-based; remark: listed apart in the source

C=CCN1C(=O)C2(NNc3ccccc3O2)c2ccccc21 (centres undefined)
EC50 [1]: 0.636 µM (active) | IC50 [2]: 11.7 µM (active) | IC50 [3]: 14.2 µM (active) | EC50 [4]: 0.514 µM (active) | EC50 [5]: < 0.195 µM (not active) | EC50 [6]: 11.3 µM (active)

Oc1ccc2ccccc2c1N=Nc1ccccn1
AC50 [7]: 0.746 µM (active) | AC50 [8]: 2.7 µM (active) | EC50 [9]: 3.4 µM (active) | EC50 [10]: 10.8 µM (active) | EC50 [11]: 11.4 µM (active) | EC50 [12]: 2.43 µM (active) | AC50 [13]: 7.41 µM (active) | IC50 [14]: > 32 µM | EC50 [15]: 25.7 µM (active) | EC50 [16]: 0.471 µM (active) | IC50 [17]: 5.12 µM (active) | IC50 [18]: > 118 µM (inactive) | EC50 [19]: 2.29 µM (active) | IC50 [20]: 13.9 µM (active) | IC50 [21]: > 80 µM (inactive) | EC50 [22]: 41 µM (active) | IC50 [23]: > 118 µM (inactive) | EC50 [24]: 24 µM (active)
